From ChEMBL document CHEMBL3885861, “Open TG-GATES”

Species: Rattus norvegicus
Test: Open TG-GATES - Regimen: Single
Format: toxicity, organism-based, Sprague-Dawley
Set-up: regimen Single, gender Male, age 6 weeks
Conditions: in vivo, po, 600 mg/kg, route gavage, dose level Middle; for APTT / Bas / Eos / Fbg / Hb / Ht / Lym / MCH / MCHC / MCV / Mono / Neu / PT / Plat / RBC / Ret / WBC: tissue Blood; for KIDNEY_L / KIDNEY_R / KIDNEY_TOTAL: tissue Kidney; for LIVER: tissue Liver; for A/G / ALP / ALT / AST / BUN / CRE / Ca / Cl / DBIL / GLC / IP / K / LDH / Na / PL / RALB / TBIL / TC / TG / TP / gamma-GTP: tissue Plasma

`NNC(=O)c1ccncc1` [ISONIAZID] was tested, and the TERMINAL_BW (3 h) was 221.5 g, the APTT (3 h) was 19.8 s and the Bas (3 h) was 0%. It also gave an Eos (3 h) of 1%, a Fbg (3 h) of 231 mg/dL and a Hb (3 h) of 13.7 g/dL. For the same compound, the Ht (3 h) was 37.8%, the Lym (3 h) was 72.6% and the MCH (3 h) was 22 pg. It also gave an MCHC (3 h) of 36.2%, an MCV (3 h) of 60.8 fL and a Mono (3 h) of 2.4%. It also gave a Neu (3 h) of 23.2%, a PT (3 h) of 12.2 s and a Plat (3 h) of 125.7 x10_4/uL. It also gave an RBC (3 h) of 622.4 x10_4/ul, a Ret (3 h) of 7.4% and a WBC (3 h) of 67.3 x10_2/uL. For the same compound, the KIDNEY_L (3 h) was 0.9 g, the KIDNEY_R (3 h) was 0.9 g and the KIDNEY_TOTAL (3 h) was 1.9 g. It also gave an LIVER (3 h) of 9.6 g, an A/G (3 h) of 1.7 and an ALP (3 h) of 950 IU/L. For the same compound, the ALT (3 h) was 39.6 IU/L, the AST (3 h) was 73.6 IU/L and the BUN (3 h) was 9 mg/dL. For the same compound, the CRE (3 h) was 0.4 mg/dL, the Ca (3 h) was 10.3 mg/dL and the Cl (3 h) was 104 meq/L. It also gave a DBIL (3 h) of 0.064 mg/dL, a GLC (3 h) of 197.6 mg/dL and an IP (3 h) of 10 mg/dL. The K (3 h) was 3.7 meq/L, the LDH (3 h) was 177.2 IU/L and the Na (3 h) was 141.4 meq/L. For the same compound, the PL (3 h) was 134.8 mg/dL, the RALB (3 h) was 3.6 g/dL and the TBIL (3 h) was 0.1 mg/dL. For the same compound, the TC (3 h) was 78.2 mg/dL, the TG (3 h) was 49.6 mg/dL and the TP (3 h) was 5.7 g/dL. The gamma-GTP (3 h) was 1 IU/L, the TERMINAL_BW (6 h) was 219.2 g and the APTT (6 h) was 18.4 s. For the same compound, the Bas (6 h) was 0%, the Eos (6 h) was 0.8% and the Fbg (6 h) was 223.4 mg/dL. For the same compound, the Hb (6 h) was 13.6 g/dL, the Ht (6 h) was 37.9% and the Lym (6 h) was 78.8%. It also gave an MCH (6 h) of 22 pg, an MCHC (6 h) of 36% and an MCV (6 h) of 61.3 fL. It also gave a Mono (6 h) of 1.8%, a Neu (6 h) of 17.6% and a PT (6 h) of 12.2 s. For the same compound, the Plat (6 h) was 133.3 x10_4/uL, the RBC (6 h) was 619 x10_4/ul and the Ret (6 h) was 7.6%. It also gave a WBC (6 h) of 75.7 x10_2/uL, a KIDNEY_L (6 h) of 1 g and a KIDNEY_R (6 h) of 1 g. The KIDNEY_TOTAL (6 h) was 1.9 g, the LIVER (6 h) was 9.6 g and the A/G (6 h) was 1.6. It also gave an ALP (6 h) of 838.6 IU/L, an ALT (6 h) of 27.6 IU/L and an AST (6 h) of 52.2 IU/L. For the same compound, the BUN (6 h) was 9.4 mg/dL, the CRE (6 h) was 0.4 mg/dL and the Ca (6 h) was 10.3 mg/dL. The Cl (6 h) was 104.6 meq/L, the DBIL (6 h) was 0.066 mg/dL and the GLC (6 h) was 210 mg/dL. It also gave an IP (6 h) of 9.3 mg/dL, a K (6 h) of 3.6 meq/L and an LDH (6 h) of 202.8 IU/L. The Na (6 h) was 142.8 meq/L, the PL (6 h) was 142.2 mg/dL and the RALB (6 h) was 3.5 g/dL. It also gave a TBIL (6 h) of 0.1 mg/dL, a TC (6 h) of 71 mg/dL and a TG (6 h) of 90.4 mg/dL. For the same compound, the TP (6 h) was 5.8 g/dL, the gamma-GTP (6 h) was 1 IU/L and the TERMINAL_BW (9 h) was 219.9 g. The APTT (9 h) was 17.5 s, the Bas (9 h) was 0% and the Eos (9 h) was 0.8%. The Fbg (9 h) was 222.8 mg/dL, the Hb (9 h) was 13.5 g/dL and the Ht (9 h) was 37.4%. The Lym (9 h) was 70.6%, the MCH (9 h) was 21.9 pg and the MCHC (9 h) was 36.1%. It also gave an MCV (9 h) of 60.6 fL, a Mono (9 h) of 1.6% and a Neu (9 h) of 26%. For the same compound, the PT (9 h) was 12.3 s, the Plat (9 h) was 116 x10_4/uL and the RBC (9 h) was 616.6 x10_4/ul. For the same compound, the Ret (9 h) was 7.1%, the WBC (9 h) was 71.5 x10_2/uL and the KIDNEY_L (9 h) was 1 g. For the same compound, the KIDNEY_R (9 h) was 1 g, the KIDNEY_TOTAL (9 h) was 2 g and the LIVER (9 h) was 8.8 g. The A/G (9 h) was 1.5, the ALP (9 h) was 752.2 IU/L and the ALT (9 h) was 23.2 IU/L. It also gave an AST (9 h) of 44.6 IU/L, a BUN (9 h) of 7.8 mg/dL and a CRE (9 h) of 0.4 mg/dL. It also gave a Ca (9 h) of 10.3 mg/dL, a Cl (9 h) of 105 meq/L and a DBIL (9 h) of 0.066 mg/dL. It also gave a GLC (9 h) of 200.6 mg/dL, an IP (9 h) of 9 mg/dL and a K (9 h) of 3.8 meq/L. It also gave an LDH (9 h) of 203.6 IU/L, a Na (9 h) of 142.6 meq/L and a PL (9 h) of 152.8 mg/dL. The RALB (9 h) was 3.4 g/dL, the TBIL (9 h) was 0.1 mg/dL and the TC (9 h) was 78.2 mg/dL. The TG (9 h) was 74.6 mg/dL, the TP (9 h) was 5.7 g/dL and the gamma-GTP (9 h) was 1 IU/L. It also gave a TERMINAL_BW (24 h) of 215.6 g, an APTT (24 h) of 19.7 s and a Bas (24 h) of 0.4%. The Eos (24 h) was 0.8%, the Fbg (24 h) was 218.6 mg/dL and the Hb (24 h) was 14.5 g/dL. The Ht (24 h) was 39.6%, the Lym (24 h) was 86.4% and the MCH (24 h) was 22.4 pg. It also gave an MCHC (24 h) of 36.7%, an MCV (24 h) of 61 fL and a Mono (24 h) of 2.4%. It also gave a Neu (24 h) of 8.8%, a PT (24 h) of 12.9 s and a Plat (24 h) of 139.5 x10_4/uL. The RBC (24 h) was 649.2 x10_4/ul, the Ret (24 h) was 3.7% and the WBC (24 h) was 85.9 x10_2/uL. It also gave a KIDNEY_L (24 h) of 1 g, a KIDNEY_R (24 h) of 1 g and a KIDNEY_TOTAL (24 h) of 2.1 g. The LIVER (24 h) was 9.8 g, the A/G (24 h) was 1.7 and the ALP (24 h) was 817.6 IU/L. The ALT (24 h) was 15.2 IU/L, the AST (24 h) was 32.2 IU/L and the BUN (24 h) was 17.8 mg/dL. It also gave a CRE (24 h) of 0.4 mg/dL, a Ca (24 h) of 10.6 mg/dL and a Cl (24 h) of 104.4 meq/L. The DBIL (24 h) was 0.06 mg/dL, the GLC (24 h) was 189.2 mg/dL and the IP (24 h) was 8.9 mg/dL. It also gave a K (24 h) of 3.9 meq/L, an LDH (24 h) of 202.4 IU/L and a Na (24 h) of 143.4 meq/L. It also gave a PL (24 h) of 123.2 mg/dL, an RALB (24 h) of 3.6 g/dL and a TBIL (24 h) of 0.1 mg/dL. The TC (24 h) was 58.6 mg/dL, the TG (24 h) was 69.6 mg/dL and the TP (24 h) was 5.7 g/dL. For the same compound, the gamma-GTP (24 h) was 1 IU/L.
